pKi: −log10 of the molar value.
What was measured:
nasal airway resistance = experiment: Nasal airway resistance (NAR) in anesthetized cats after aerosolized Compound 48/80 challenge; format: in vivo
Source text: (§1) Adult cats are anesthetized with intraperitoneal injections of sodium pentobarbital. The right femoral artery and vein are cannulated for measurement of blood pressure with a pressure transducer, and for the administration of drugs. The animals are paralyzed with intravenous gallamine triethiodide and subsequently mechanically ventilated with room air, using an animal ventilator. After isolation of the cervical […], a cuffed endotracheal tube is advanced rostrally into the posterior nasopharynx and inflated to form an air-tight seal, allowing continuous measurement of pressure changes within the nasal cavity. The right nasal airway is occluded with dental impression compound, and humidified air is passed through the left nasal airway at about 1.7 liters per minute. By means of pressure transducers, nasal airway pressure and insufflation pressure can be derived and electronically recorded.
The known histamine releaser "Compound 48/80" (the condensation product of N-methyl-p-methoxyphenethylamine with formaldehyde, sold by Sigma Chemical Company, St. Louis, Mo., USA), as a 1.0 percent solution in 0.9 percent aqueous saline solution, is aerosolized into the air stream for 2 minutes to induce an increased NAR. This effect is used to study the decongestant effects of various test substances, administered to the animals intravenously 10 minutes prior to the introduction of Compound 48/80. These substances include 0.9 percent aqueous saline (normal saline "Vehicle"), phenylpropanolamine hydrochloride at 1.0 mg/Kg of the free drug, thioperamide maleate at 10 mg/Kg of the free drug and chlorpheniramine maleate at 0.8 mg/Kg of the free drug, all of the drug compounds being in solution in 0.9 percent aqueous saline. […]

[1] = Blood pressure change from baseline in the cat experiments; format: in vivo, cats; conditions: Example 4, phenylpropanolamine 1 mg/Kg
Source text: as §1
The known histamine releaser "Compound 48/80" (the condensation product of N-methyl-p-methoxyphenethylamine with formaldehyde, sold by Sigma Chemical Company, St. Louis, Mo., USA), as a 1.0 percent solution in 0.9 percent aqueous saline solution, is aerosolized into the air stream for 2 minutes to induce an increased NAR. This effect is used to study the decongestant effects of various test substances, administered to the animals intravenously 10 minutes prior to the introduction of Compound 48/80. These substances include 0.9 percent aqueous saline (normal saline "Vehicle"), phenylpropanolamine hydrochloride at 1.0 mg/Kg of the free drug, thioperamide maleate at 10 mg/Kg of the free drug and chlorpheniramine maleate at 0.8 mg/Kg of the free drug, all of the drug compounds being in solution in 0.9 percent aqueous saline.
Blood pressure data from the experiments of the preceding examples are examined, to determine the effects of certain congestion-preventing treatments.

histamine H3 receptor = molecular target: T1, histamine H3 receptor (Cavia porcellus, UniProt Q9JI35); experiment: Guinea pig brain membrane assay, affinity for histamine H3 receptor binding sites (Korte et al.); conditions: Example 5
T1 construct: from tissue; host or cells: guinea pig brain membranes
T1 sequence (Q9JI35 whole entry): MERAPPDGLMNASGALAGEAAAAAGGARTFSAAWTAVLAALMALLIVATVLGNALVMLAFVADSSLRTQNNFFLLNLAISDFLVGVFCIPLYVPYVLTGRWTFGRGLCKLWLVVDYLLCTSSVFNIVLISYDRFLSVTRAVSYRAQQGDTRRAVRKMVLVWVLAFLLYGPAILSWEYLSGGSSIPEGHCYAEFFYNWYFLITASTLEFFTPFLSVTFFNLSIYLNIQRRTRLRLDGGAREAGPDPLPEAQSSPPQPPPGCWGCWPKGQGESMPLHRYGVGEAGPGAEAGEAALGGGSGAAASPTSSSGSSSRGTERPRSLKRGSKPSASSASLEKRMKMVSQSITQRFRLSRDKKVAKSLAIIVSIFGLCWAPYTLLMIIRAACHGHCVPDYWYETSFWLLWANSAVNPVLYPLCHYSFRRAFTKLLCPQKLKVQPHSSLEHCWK
Source text: A particularly useful screening assay measures binding to sites in guinea pig brain membranes. This test is described in detail by Korte et al., "Characterization and Tissue Distribution of H3 Histamine Receptors in Guinea Pigs by N^α -Methylhistamine," in Biochemical and Biophysical Research Communications, Vol. 168, pages 979-986 (1990), and quantifies the displacement of bound radiolabeled N^α -methylhistamine from tissues by candidate compounds. Results are expressed as "Ki " values, in nanoMolar (nM) units, which values can be considered as being dissociation constants for the H3 antagonist on the H3 receptor system, or an index of antagonist affinity for the receptor. The present inventors have evidence that decongestant activity in their invention for a given H3 antagonist concentration can be predicted to increase as the Ki value obtained from the assay for an antagonist decreases. In general, Ki values less than about 200 nM are considered necessary for an agent to be useful as an H3 antagonist in the invention.
The affinity of various histamine H3 receptor antagonists for binding sites is determined by a guinea pig brain membrane assay, according to the procedure of Korte et al., Biochemical and Biophysical Research Communications, Vol. 168, pages 979-986 (1990).

[2] = Example 1, i.v. 10 min before Compound 48/80, phenylpropanolamine 1.0 mg/Kg, thioperamide 10 mg/Kg, chlorpheniramine 0.8 mg/Kg (free drug), vehicle 9.1, baseline 2.6

S=C(NC1CCCCC1)N1CCC(c2cnc[nH]2)CC1 [Thioperamide, thioperamide]
NAR (nasal airway resistance) (nasal airway resistance; [2]): 6.7 centimeters of water/liters pe

CN(C)CCC(c1ccc(Cl)cc1)c1ccccn1 (centres unmarked) [Chlorpheniramine, chlorpheniramine]
NAR (nasal airway resistance) (nasal airway resistance; [2]): 6.0 centimeters of water/liters pe

CC(N)C(O)c1ccccc1 (centres unmarked) [Phenylpropanolamine, phenylpropanolamine]
NAR (nasal airway resistance) (nasal airway resistance; [2]): 2.9 centimeters of water/liters pe | Statistical difference of NAR from vehicle (nasal airway resistance; Example 1, phenylpropanolamine 1.0 mg/Kg i.v.): statistically different result from that for the vehicle | Nasal congestion-preventing effect compared with thioperamide + chlorpheniramine combination (nasal airway resistance; Example 4 comment, phenylpropanolamine 1 mg/Kg): approximately equivalent nasal congestion-preventing effect | Blood pressure, change from baseline ([1]; i.v., thioperamide 10 mg/Kg + CPA 0.8 mg/kg, vehicle -16): +31 mm Hg | Statistical difference of blood pressure change from vehicle [1]: statistically different from those for the vehicle | Effect on blood pressure (in words) ([1]; thioperamide 10 mg/Kg + CPA 0.8 mg/kg): significantly increases blood pressure

NC(=NCc1ccc(Cl)cc1)SCCCc1cnc[nH]1 [Clobenpropit, clobenpropit]
Prevention of nasal congestion (in words) (nasal airway resistance; Example 3, clobenpropit alone or with chlorpheniramine 0.8 mg/Kg): does not exhibit significant prevention of nasal congestion | NAR (nasal airway resistance) (nasal airway resistance; Example 3, i.v., clobenpropit 1.0 mg/Kg alone, vehicle 9.1): 5.5 centimeters of water/liters pe

CCOC(=O)N1CCC(=C2c3ccc(Cl)cc3CCc3cccnc32)CC1 [Loratadine, loratadine]
NAR (nasal airway resistance) (nasal airway resistance; Example 6, loratadine 3 mg/Kg, thioperamide 10 mg/Kg, vehicle 30% dimethylsulfoxide, 40% ethanol, 30% normal saline (vehicle 12.6)): 10.2 centimeters of water/liters pe

COc1ccc(C/C(=N\O)C(=O)NCCc2c[nH]cn2)cc1Br [Verongamine, verongamine]
Statistical difference of NAR from vehicle (nasal airway resistance; Example 5, verongamine 10 mg/Kg): not statistically different from that for the vehicle | NAR (nasal airway resistance) (nasal airway resistance; Example 5, verongamine 10 mg/Kg, different vehicle (vehicle 7.8)): 7.3 centimeters of water/liters pe | pKi (histamine H3 receptor): < 6.70
